Experimental data published in patent US10934300B2, “Atropisomerism for enhanced kinase inhibitor selectivity” (San Diego State University Foundation, priority 2017, dated 2021).

Columns and labels:
[1] = target: Lck (Homo sapiens, UniProt P06239); assay: Z'-LYTE kinase inhibition, Lck
[2] = target: Src kinase (Homo sapiens, UniProt P12931); assay: Z'-LYTE kinase inhibition, Src; details: Src relative to Yes
[3] = tested on: panel of tyrosine kinases; assay: Kinase inhibitor profiling across a panel of tyrosine kinases, selectivity score; type: biochemical
Method: To analyze each analog's selectivity across the panel, selectivity scores were used (Davis et al., Nat. Biotechnol. 2011, 29, 1046-51), which are simply the number of kinases inhibited above a certain threshold divided by the number of kinases evaluated. […] For example at 1000 nM 2e-(R) yielded an S(40%) of 0.11 while 2e-(S) gave an S(40%) of 0.16. […] Differences in selectivity between 2e-(R) and 2e-(S) at 5000 nM (4.5 times the IC50 of 2e-(S) toward Src) and for 5 at 1000 nM (6.25 times the IC50 of 5 toward Src) can be viewed graphically across tyrosine kinases (FIG. 3). Importantly, similar trends were also observed across each of the atropisomeric series tested.
All samples were sent out to Life Technologies to obtain kinase inhibition data. A brief description of the assays and analyses are included below.
Assay Theory (SelectScreen® Kinase Profiling Services (Life Technologies, Madison, Wis. USA). The Z′-LYTE® biochemical assay employs a fluorescence-based, coupled-enzyme format and is based on the differential sensitivity of phosphorylated and non-phosphorylated peptides to proteolytic cleavage. The peptide substrate is labeled with two fluorophores—one at each end—that make up a FRET pair.
In the primary reaction, the kinase transfers the gamma-phosphate of ATP to a single tyrosine, serine or threonine residue in a synthetic FRET-peptide. In the secondary reaction, a site-specific protease recognizes and cleaves non-phosphorylated FRET-peptides. Phosphorylation of FRET-peptides suppresses cleavage by the Development Reagent. Cleavage disrupts FRET between the donor (i.e., coumarin) and acceptor (i.e., fluorescein) fluorophores on the FRET-peptide, whereas uncleaved, phosphorylated FRET-peptides maintain FRET. A ratiometric method, which calculates the ratio (the Emission Ratio) of donor emission to acceptor emission after excitation of the donor fluorophore at 400 nm, is used to quantitate reaction progress, as shown in the equation below: […]
A significant benefit of this ratiometric method for quantitating reaction progress is the elimination of well-to-well variations in FRET-peptide concentration and signal intensities. […] Both cleaved and uncleaved FRET-peptides contribute to the fluorescence signals and therefore to the Emission Ratio. The extent of phosphorylation of the FRET-peptide can be calculated from the Emission Ratio. The Emission Ratio will remain low 1f the FRET-peptide is phosphorylated (i.e., no kinase inhibition) and will be high if the FRET-peptide is non-phosphorylated (i.e., kinase inhibition).
Both cleaved and uncleaved FRET-peptides contribute to the fluorescence signals and therefore to the Emission Ratio. The extent of phosphorylation of the FRET-peptide can be calculated from the Emission Ratio. The Emission Ratio will remain low if the FRET-peptide is phosphorylated (i.e., no kinase inhibition) and will be high if the FRET-peptide is non-phosphorylated (i.e., kinase inhibition).

[4] = target: BTK (Homo sapiens, UniProt Q06187); assay: Z'-LYTE kinase inhibition, BTK
[5] = target: Abl (Homo sapiens, UniProt P00519); assay: Z'-LYTE kinase inhibition, Abl
[6] = target: Hck (Homo sapiens, UniProt P08631); assay: Z'-LYTE kinase inhibition, Hck
[7] = target: EGFR (Homo sapiens, UniProt P00533); assay: Z'-LYTE kinase inhibition, EGFR; details: EGFR relative to Yes
[8] = target: CSK (Homo sapiens, UniProt P41240); assay: Z'-LYTE kinase inhibition, CSK
[9] = target: pdgfr-b (Homo sapiens, UniProt P09619); assay: Z'-LYTE kinase inhibition, pdgfr-b
[10] = target: Fyn (Homo sapiens, UniProt P06241); assay: Z'-LYTE kinase inhibition, Fyn
[11] = target: Ret kinase (Homo sapiens, UniProt P07949); assay: Z'-LYTE kinase inhibition, Ret
[12] = target: Kit (Homo sapiens, UniProt P10721); assay: Z'-LYTE kinase inhibition, Kit
[13] = target: Yes (Homo sapiens, UniProt P07947); assay: Z'-LYTE kinase inhibition, Yes
[14] = target: Blk (Homo sapiens, UniProt P51451); assay: Z'-LYTE kinase inhibition, Blk
[15] = target: Lyn (Homo sapiens, UniProt P07948); assay: Z'-LYTE kinase inhibition, Lyn
[16] = target: pdgfr-a (Homo sapiens, UniProt P16234); assay: Z'-LYTE kinase inhibition, pdgfr-a
[17] = target: Alk (Homo sapiens, UniProt Q9UM73); assay: Z'-LYTE kinase inhibition, Alk
[18] = target: Fgr (Homo sapiens, UniProt P09769); assay: Z'-LYTE kinase inhibition, Fgr

Sequence of Ret kinase (P07949 29-1114): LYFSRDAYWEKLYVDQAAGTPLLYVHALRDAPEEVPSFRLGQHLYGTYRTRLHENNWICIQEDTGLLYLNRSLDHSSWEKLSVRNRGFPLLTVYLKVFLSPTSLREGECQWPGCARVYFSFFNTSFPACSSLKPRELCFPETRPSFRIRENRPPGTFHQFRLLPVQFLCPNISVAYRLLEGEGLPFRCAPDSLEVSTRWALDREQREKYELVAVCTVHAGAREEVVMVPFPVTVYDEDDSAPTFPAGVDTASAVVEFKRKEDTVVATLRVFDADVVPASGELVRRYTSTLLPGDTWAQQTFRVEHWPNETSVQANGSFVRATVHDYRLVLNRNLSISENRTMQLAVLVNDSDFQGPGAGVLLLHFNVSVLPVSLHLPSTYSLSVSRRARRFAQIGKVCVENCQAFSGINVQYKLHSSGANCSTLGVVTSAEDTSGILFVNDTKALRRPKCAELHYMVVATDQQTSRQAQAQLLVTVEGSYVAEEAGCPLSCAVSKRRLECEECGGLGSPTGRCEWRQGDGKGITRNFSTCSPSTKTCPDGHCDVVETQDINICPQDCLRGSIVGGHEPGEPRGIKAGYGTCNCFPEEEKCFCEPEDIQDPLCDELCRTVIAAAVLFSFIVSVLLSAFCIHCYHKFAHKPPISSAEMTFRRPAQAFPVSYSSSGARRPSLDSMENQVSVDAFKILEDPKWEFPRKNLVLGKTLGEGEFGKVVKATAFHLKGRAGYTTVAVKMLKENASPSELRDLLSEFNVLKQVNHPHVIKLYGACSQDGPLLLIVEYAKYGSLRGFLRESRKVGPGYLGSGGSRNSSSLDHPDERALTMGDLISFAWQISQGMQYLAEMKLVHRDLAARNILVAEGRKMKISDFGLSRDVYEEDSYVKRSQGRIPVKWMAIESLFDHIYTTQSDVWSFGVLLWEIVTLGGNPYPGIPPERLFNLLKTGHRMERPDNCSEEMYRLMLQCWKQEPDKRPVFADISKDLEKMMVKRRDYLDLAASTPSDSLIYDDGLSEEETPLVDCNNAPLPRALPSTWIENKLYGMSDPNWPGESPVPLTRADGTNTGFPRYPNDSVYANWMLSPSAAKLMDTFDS
Sequence of Yes (P07947 whole entry): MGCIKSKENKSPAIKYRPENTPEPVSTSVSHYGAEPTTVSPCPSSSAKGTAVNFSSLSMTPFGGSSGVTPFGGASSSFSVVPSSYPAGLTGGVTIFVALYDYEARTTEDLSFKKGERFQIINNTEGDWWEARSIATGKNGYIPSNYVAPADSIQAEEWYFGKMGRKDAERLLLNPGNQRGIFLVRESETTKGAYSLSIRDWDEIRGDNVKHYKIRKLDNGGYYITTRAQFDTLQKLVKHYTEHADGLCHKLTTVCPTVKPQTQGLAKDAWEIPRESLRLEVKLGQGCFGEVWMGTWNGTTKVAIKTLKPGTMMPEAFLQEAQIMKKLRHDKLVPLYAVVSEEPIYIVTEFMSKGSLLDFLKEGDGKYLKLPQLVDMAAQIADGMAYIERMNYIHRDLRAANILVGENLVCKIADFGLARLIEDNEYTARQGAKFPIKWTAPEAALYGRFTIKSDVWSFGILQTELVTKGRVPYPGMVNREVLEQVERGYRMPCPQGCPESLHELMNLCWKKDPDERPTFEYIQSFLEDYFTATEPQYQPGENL
Sequence of Abl (P00519 whole entry): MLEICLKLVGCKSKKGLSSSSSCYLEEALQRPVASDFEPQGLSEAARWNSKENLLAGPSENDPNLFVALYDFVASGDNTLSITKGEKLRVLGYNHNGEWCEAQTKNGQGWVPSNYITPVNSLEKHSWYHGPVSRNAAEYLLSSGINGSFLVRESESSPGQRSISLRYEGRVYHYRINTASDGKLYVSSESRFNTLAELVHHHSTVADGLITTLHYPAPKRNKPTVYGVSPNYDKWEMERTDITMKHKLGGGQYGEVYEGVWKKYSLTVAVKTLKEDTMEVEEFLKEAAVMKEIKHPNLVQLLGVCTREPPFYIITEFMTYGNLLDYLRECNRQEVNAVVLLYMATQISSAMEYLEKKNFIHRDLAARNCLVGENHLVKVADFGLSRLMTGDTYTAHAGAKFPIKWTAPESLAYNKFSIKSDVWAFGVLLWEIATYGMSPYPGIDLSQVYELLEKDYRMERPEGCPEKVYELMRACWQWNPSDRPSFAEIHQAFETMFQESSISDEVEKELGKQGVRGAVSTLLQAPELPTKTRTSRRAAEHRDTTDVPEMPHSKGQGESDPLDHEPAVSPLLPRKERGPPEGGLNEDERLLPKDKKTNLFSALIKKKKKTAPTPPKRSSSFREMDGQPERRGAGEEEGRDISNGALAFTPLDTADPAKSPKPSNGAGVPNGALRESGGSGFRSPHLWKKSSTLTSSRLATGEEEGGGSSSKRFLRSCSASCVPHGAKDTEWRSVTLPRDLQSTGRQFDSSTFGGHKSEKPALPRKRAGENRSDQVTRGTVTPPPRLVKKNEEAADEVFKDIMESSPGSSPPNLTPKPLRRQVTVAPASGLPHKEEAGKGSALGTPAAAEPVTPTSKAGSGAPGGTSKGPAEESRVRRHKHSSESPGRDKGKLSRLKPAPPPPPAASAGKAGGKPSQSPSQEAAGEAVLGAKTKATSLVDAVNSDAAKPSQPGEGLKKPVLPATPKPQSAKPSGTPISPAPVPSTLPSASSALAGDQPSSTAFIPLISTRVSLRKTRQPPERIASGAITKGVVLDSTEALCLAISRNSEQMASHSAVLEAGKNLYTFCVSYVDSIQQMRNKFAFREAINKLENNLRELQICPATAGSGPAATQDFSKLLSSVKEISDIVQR
Sequence of Alk (Q9UM73 19-1620): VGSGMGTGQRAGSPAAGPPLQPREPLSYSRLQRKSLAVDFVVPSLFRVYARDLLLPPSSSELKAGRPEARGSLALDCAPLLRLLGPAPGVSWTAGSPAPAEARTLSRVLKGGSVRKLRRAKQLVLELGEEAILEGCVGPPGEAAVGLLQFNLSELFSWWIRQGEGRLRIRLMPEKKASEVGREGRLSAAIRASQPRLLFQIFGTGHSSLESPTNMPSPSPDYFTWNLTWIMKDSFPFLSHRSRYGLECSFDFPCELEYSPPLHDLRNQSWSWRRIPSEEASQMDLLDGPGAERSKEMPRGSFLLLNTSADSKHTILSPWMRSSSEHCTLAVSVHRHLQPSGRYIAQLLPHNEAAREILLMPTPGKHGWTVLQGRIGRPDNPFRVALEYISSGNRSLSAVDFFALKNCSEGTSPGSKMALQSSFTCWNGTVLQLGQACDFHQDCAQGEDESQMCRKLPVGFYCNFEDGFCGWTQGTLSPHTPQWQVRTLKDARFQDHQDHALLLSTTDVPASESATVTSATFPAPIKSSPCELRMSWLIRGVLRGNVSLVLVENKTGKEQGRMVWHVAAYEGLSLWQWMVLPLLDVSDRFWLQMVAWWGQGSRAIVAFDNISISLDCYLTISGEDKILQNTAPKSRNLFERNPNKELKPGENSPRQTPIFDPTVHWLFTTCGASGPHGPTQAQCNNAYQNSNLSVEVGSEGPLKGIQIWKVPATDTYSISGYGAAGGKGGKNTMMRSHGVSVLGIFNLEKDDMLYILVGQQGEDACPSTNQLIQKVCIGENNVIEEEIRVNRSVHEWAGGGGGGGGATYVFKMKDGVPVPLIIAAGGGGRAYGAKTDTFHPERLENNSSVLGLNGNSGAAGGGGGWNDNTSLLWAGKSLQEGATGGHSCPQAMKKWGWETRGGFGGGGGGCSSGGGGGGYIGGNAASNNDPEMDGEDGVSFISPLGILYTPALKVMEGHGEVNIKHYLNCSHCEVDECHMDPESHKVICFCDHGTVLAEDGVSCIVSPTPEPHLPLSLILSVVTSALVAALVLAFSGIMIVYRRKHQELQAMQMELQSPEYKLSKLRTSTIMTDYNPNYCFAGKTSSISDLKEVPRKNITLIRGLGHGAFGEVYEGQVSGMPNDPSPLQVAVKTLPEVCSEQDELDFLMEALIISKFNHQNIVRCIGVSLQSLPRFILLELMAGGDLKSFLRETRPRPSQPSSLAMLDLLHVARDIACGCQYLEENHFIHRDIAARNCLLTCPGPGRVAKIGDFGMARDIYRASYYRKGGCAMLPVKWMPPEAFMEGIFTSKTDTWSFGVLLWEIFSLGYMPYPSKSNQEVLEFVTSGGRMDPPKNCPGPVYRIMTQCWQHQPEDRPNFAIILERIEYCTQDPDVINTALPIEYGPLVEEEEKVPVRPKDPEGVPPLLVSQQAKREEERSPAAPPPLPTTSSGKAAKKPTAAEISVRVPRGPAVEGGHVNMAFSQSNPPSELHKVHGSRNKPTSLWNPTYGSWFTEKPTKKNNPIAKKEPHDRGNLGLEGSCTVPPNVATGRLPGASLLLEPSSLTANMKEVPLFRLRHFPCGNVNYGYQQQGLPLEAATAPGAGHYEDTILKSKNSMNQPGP
Sequence of Lyn (P07948 whole entry): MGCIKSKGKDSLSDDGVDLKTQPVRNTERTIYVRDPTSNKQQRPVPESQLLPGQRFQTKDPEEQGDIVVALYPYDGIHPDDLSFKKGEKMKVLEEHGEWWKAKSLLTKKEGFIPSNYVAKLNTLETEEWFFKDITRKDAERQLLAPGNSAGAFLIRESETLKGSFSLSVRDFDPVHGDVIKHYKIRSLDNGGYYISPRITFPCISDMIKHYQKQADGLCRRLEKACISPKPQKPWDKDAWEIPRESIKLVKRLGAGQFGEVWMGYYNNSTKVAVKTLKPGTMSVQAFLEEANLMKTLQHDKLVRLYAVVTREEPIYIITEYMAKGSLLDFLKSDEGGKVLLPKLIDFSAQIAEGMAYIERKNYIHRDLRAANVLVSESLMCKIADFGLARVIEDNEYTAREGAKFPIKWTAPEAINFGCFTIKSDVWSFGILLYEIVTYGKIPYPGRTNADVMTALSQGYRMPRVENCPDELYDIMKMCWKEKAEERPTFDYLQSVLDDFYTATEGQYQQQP

- S/R (5000 nM): % inhibition 2e-(S) / % inhibition 2e-(R) [1]: 1.05
- IC50 of compound Kinase/IC50 of compound Yes [2]: 1.64
- S(40%): number of kinases inhibited greater than 40% divided by number of kinases tested (including Src) ([3]; 1000 nM): 0.16
- S(40%): number of kinases inhibited greater than 40% divided by number of kinases tested (including Src) ([3]; 5000 nM): 0.61
- Inhibited % (n/18) of tyrosine kinases ([3]; share of the 18 tyrosine kinases inhibited, concentration not printed in Table 3): (S): Inhibited 16% (3/18)
- S/R (5000 nM): % inhibition 2e-(S) / % inhibition 2e-(R) [4]: 1.86
- IC50 of compound Kinase/IC50 of compound Yes ([5]; Abl relative to Yes): 1.96
- S/R (5000 nM): % inhibition 2e-(S) / % inhibition 2e-(R) ([5]; Abl, 5000 nM): 2.57
- S/R (5000 nM): % inhibition 2e-(S) / % inhibition 2e-(R) [6]: 1.25
- IC50 of compound Kinase/IC50 of compound Yes [7]: >10.0
- S/R (5000 nM): % inhibition 2e-(S) / % inhibition 2e-(R) [8]: 1.28
- S/R (5000 nM): % inhibition 2e-(S) / % inhibition 2e-(R) [9]: 1.23
- S/R (5000 nM): % inhibition 2e-(S) / % inhibition 2e-(R) [10]: 1.27
- IC50 of compound Kinase/IC50 of compound Yes ([11]; Ret relative to Yes): 10.53
- augmentation/increase of 5's inherent selectivity ([11]; Ret versus Abl and Src, listed as 2e-(5)): ~8 fold
- S/R (5000 nM): % inhibition 2e-(S) / % inhibition 2e-(R) ([11]; Ret, 5000 nM): 0.44
- S/R (5000 nM): % inhibition 2e-(S) / % inhibition 2e-(R) [12]: 1.38
- IC50 of compound Kinase/IC50 of compound Yes ([13]; Yes relative to Yes): 1
- S/R (5000 nM): % inhibition 2e-(S) / % inhibition 2e-(R) ([13]; Yes, 5000 nM): 0.97
- S/R (5000 nM): % inhibition 2e-(S) / % inhibition 2e-(R) [14]: 1.46
- S/R (5000 nM): % inhibition 2e-(S) / % inhibition 2e-(R) [15]: 1.31
- S/R (5000 nM): % inhibition 2e-(S) / % inhibition 2e-(R) [16]: 1.63
- S/R (5000 nM): % inhibition 2e-(S) / % inhibition 2e-(R) [17]: 0.38
- S/R (5000 nM): % inhibition 2e-(S) / % inhibition 2e-(R) [18]: 1.05
SMILES: COc1ccc(Cl)c(-c2c(Cl)n(C(C)(C)C)c3ncnc(N)c23)c1 (single isomer, unassigned) [2e-(S), 7-(tert-butyl)-6-chloro-5-(2-chloro-5-methoxyphenyl)-7H-pyrrolo[2,3-d]pyrimidin-4-amine]
